Data reported in BindingDB's records for doi:10.1016/j.bmc.2009.10.004 (Kinki University, 2010).

Target: Beta-secretase 1 (Homo sapiens, UniProt P56817)
Assay: Competitive inhibition of human recombinant BACE1 by Lineweaver-Burke plot analysis

Beta-secretase 1, sequence (P56817 whole entry): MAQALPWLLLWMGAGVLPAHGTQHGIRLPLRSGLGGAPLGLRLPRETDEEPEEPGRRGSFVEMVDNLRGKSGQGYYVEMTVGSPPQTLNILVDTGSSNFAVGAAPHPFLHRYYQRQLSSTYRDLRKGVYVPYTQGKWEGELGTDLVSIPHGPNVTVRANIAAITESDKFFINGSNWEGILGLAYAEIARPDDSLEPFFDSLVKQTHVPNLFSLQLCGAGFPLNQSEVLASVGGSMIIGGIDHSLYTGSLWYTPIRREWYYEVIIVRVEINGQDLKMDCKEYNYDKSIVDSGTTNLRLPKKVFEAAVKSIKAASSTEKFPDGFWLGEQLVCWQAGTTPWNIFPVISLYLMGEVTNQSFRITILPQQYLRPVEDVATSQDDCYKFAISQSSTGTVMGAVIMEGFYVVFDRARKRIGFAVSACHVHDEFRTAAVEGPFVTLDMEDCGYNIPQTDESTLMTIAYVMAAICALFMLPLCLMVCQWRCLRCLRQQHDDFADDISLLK

Compound: COC(=O)CCc1c(O)cc2occc2c1OCC=C(C)C [6,7-Furano-5-prenyloxy hydrocoumaric acid methyl ester]
- Ki: 11.3 µM
